In ChEMBL document CHEMBL5653595 (J Biol Chem, 2003):
Active and inactive are the calls of the source. No cut-off for these calls is given here.

Legend:
[1] = target: T1, Inhibitor of nuclear factor kappa-B kinase subunit epsilon (Homo sapiens) (UniProt Q14164); test: Inhibition of GST-tagged IKKE (unknown origin) expressed in High five cells using LDDRHDSGLDSMKDEEY as substrate incubated for 5 mins in presence of [gamma33P]ATP by liquid scintillation counter analysis
T1 sequence (whole entry): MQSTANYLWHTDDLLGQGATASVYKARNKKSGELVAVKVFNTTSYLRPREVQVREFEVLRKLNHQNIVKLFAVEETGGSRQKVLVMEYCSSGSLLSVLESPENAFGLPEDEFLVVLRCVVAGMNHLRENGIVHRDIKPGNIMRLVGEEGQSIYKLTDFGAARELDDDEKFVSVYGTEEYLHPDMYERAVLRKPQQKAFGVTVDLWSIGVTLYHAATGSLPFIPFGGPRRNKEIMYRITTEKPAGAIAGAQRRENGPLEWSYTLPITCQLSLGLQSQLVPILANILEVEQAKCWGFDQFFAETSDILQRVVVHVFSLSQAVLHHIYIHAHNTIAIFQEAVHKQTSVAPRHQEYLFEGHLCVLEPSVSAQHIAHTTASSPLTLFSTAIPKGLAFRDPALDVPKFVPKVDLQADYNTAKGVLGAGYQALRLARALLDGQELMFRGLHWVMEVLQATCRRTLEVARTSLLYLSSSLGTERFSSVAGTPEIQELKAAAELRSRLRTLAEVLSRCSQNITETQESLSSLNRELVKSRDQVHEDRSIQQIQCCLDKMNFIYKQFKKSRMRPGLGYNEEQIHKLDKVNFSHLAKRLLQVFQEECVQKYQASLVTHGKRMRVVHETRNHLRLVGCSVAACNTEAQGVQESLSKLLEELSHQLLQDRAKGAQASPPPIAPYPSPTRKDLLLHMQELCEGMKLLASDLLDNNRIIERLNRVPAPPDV

[2] = target: Protein kinase C alpha type (Homo sapiens) (UniProt P17252); test: Inhibition of recombinant human PKCalpha at 100 uM
[3] = target: T2, Protein kinase C zeta type (Homo sapiens) (UniProt Q05513); test: Inhibition of recombinant human PKCzeta at 100 uM
T2 sequence (whole entry): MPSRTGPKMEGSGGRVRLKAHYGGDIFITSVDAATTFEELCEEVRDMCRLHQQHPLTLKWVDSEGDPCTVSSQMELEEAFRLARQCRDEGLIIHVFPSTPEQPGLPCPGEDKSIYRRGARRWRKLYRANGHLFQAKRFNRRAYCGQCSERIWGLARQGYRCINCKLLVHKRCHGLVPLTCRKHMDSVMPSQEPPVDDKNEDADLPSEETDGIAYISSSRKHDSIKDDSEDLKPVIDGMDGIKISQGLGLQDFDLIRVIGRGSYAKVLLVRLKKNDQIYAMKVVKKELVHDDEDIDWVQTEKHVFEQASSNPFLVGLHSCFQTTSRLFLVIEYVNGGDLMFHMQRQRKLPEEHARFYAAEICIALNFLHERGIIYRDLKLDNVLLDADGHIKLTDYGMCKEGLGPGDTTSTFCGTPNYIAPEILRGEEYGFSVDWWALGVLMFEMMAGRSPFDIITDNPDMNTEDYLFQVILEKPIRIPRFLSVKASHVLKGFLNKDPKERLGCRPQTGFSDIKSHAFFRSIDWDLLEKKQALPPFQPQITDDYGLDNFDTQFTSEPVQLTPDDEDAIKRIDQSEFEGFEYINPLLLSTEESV

[4] = target: Epidermal growth factor receptor (Homo sapiens) (UniProt P00533); test: Inhibition of recombinant human Her1 at 100 uM
[5] = target: Receptor tyrosine-protein kinase erbB-2 (Homo sapiens) (UniProt P04626); test: Inhibition of recombinant human Her2 at 100 uM
[6] = target: Mitogen-activated protein kinase 14 (Homo sapiens) (UniProt Q16539); test: Inhibition of recombinant human P38alpha at 100 uM
[7] = target: MAP kinase-activated protein kinase 2 (Homo sapiens) (UniProt P49137); test: Inhibition of recombinant human MAPKAPK2 at 100 uM
[8] = target: T3, Tyrosine-protein kinase JAK3 (Homo sapiens) (UniProt P52333); test: Inhibition of recombinant human JAK3 at 100 uM
T3 sequence (whole entry): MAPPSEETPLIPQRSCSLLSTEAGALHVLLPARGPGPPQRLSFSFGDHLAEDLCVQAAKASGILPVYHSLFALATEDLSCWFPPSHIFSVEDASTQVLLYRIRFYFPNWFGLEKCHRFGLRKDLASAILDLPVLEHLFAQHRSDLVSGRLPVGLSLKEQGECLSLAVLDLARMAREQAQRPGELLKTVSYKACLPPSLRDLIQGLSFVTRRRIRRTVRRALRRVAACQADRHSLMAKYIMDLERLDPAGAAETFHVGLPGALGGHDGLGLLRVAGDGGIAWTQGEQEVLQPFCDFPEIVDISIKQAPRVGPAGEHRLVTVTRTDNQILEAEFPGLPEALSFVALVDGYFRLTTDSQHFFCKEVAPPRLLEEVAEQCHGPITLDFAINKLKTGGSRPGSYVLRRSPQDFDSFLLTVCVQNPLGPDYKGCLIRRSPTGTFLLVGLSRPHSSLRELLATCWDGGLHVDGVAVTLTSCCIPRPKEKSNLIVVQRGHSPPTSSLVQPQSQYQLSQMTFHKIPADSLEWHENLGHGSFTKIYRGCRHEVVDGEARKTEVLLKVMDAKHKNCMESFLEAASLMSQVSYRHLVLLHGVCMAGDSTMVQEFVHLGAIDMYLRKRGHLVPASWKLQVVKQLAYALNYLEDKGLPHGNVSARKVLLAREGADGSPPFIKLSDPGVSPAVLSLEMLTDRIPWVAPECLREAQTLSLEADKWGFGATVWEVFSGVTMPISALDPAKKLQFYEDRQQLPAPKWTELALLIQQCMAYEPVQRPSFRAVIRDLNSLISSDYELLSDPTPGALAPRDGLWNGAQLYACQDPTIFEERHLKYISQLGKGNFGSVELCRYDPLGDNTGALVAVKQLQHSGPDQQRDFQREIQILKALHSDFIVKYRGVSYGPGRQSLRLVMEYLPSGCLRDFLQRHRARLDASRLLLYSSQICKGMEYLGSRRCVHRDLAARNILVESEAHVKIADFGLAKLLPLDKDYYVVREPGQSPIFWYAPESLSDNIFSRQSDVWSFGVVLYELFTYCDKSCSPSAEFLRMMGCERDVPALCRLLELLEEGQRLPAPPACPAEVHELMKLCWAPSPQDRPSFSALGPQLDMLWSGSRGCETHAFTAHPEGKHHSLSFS

[9] = target: T4, Tyrosine-protein kinase ITK/TSK (Homo sapiens) (UniProt Q08881); test: Inhibition of recombinant human EMT at 100 uM
T4 sequence (whole entry): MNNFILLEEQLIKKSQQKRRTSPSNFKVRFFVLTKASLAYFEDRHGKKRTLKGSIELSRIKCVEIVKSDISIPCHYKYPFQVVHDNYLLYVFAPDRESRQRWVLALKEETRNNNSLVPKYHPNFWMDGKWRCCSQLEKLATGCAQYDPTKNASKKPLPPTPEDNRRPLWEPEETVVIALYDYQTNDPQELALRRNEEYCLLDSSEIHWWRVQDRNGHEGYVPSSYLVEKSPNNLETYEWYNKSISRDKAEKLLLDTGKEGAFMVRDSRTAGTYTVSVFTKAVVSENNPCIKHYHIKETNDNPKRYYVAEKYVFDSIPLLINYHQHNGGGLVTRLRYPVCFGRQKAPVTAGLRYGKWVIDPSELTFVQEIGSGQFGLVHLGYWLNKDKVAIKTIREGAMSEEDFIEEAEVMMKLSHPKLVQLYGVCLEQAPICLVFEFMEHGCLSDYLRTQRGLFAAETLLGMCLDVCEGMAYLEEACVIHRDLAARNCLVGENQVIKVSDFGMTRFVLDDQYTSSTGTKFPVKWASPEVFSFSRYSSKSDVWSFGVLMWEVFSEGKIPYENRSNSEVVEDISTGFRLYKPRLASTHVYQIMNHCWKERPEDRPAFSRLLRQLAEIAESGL

[10] = target: Tyrosine-protein kinase Lck (Homo sapiens) (UniProt P06239); test: Inhibition of recombinant human LCK at 100 uM
Homo sapiens = organism: Homo sapiens; test: Inhibition of recombinant human MAPK at 100 uM
[11] = target: Mitogen-activated protein kinase 1 (Homo sapiens) (UniProt P28482); test: Inhibition of recombinant human ERK2 at 100 uM
[12] = target: Insulin-like growth factor 1 receptor (Homo sapiens) (UniProt P08069); test: Inhibition of recombinant human IGF1R at 100 uM
THP-1 [13] = test: Cytotoxicity against human THP-1 cells by trypan blue exclusion assay; format: toxicity, cell-based
[14] = target: MAP kinase-activated protein kinase 2 (Homo sapiens) (UniProt P49137); test: Inhibition of LPS-stimulated MAPKAPK2 activation in human THP-1 cells at 100 uM using [33P]ATP as substrate pre incubated for 60 mins followed by LPS-stimulation for 30 mins; format: cell-based; conditions: time 90.0 min
[15] = target: Signal transducer and activator of transcription 3 (Homo sapiens) (UniProt P40763); test: Inhibition of EGF-stimulated STAT3 phosphorylation in human NCI-H292 cells at 100 uM pre incubated for 60 mins followed by […] stimulation for 5 mins by immunoblot analysis; format: cell-based; conditions: time 65.0 min
THP-1 [16] = test: Antiinflammatory activity against LPS-induced human THP-1 cells assessed as reduction in TNFalpha cytokine level preincubated for 1 hr followed by LPS-stimulation and measured after 6 hrs by enzyme immunoassay; format: functional, cell-based
THP-1 [17] = test: Antiinflammatory activity against LPS-induced human THP-1 cells assessed as reduction in IL-1beta cytokine level preincubated for 1 hr followed by LPS-stimulation and measured after 6 hrs by enzyme immunoassay; format: functional, cell-based
THP-1 [18] = test: Antiinflammatory activity against LPS-induced human THP-1 cells assessed as reduction in IL-8 cytokine level preincubated for 1 hr followed by LPS-stimulation and measured after 6 hrs by enzyme immunoassay; format: functional, cell-based
THP-1 [19] = test: Antiinflammatory activity against LPS-induced human THP-1 cells assessed as reduction in IL-6 cytokine level preincubated for 1 hr followed by LPS-stimulation and measured after 24 hrs by enzyme immunoassay; format: functional, cell-based
[20] = Aqueous solubility of compound; format: physicochemical; conditions: buffer
[21] = Cmax in BALB/c mouse at 10 mg/kg, po measured upto 8 hrs by LC-MS-MS analysis; format: ADME, organism-based; conditions: in vivo
[22] = Tmax in BALB/c mouse at 10 mg/kg, po measured upto 8 hrs by LC-MS-MS analysis; format: ADME, organism-based; conditions: in vivo
[23] = Half life in BALB/c mouse at 2 mg/kg, iv measured upto 8 hrs by LC-MS-MS analysis; format: ADME, organism-based; conditions: in vivo
[24] = Volume of distribution at steady state in BALB/c mouse at 2 mg/kg, iv measured upto 8 hrs by LC-MS-MS analysis; format: ADME, organism-based; conditions: in vivo, read-out: Vdss
[25] = Total clearance in BALB/c mouse at 2 mg/kg, iv measured upto 8 hrs by LC-MS-MS analysis; format: ADME, organism-based; conditions: in vivo
[26] = Oral bioavailability in BALB/c mouse at 10 mg/kg measured upto 8 hrs by LC-MS-MS analysis; format: ADME, organism-based; conditions: in vivo
Mus musculus [27] = test: Antiinflammatory activity against LPS-induced po dosed BALB/c mouse assessed as reduction in TNFalpha cytokine level pretreated for 1 hr followed by LPS-stimulation and measured after 90mins by enzyme immunoassay; format: functional, organism-based; conditions: dose 1-100 mg/kg, time 150.0 min
Mus musculus [28] = test: Antiinflammatory activity against LPS-induced BALB/c mouse assessed as reduction in TNFalpha cytokine level at 10 mg/kg, po pretreated for 1 hr followed by LPS-stimulation and measured after 90mins by enzyme immunoassay; format: functional; parameters: scale not given: the % may be the effect or the level left; conditions: time 150 min, 2.5 h
Mus musculus [29] = test: Antiinflammatory activity against LPS-induced BALB/c mouse assessed as reduction in TNFalpha cytokine level at 100 mg/kg, po pretreated for 1 hr followed by LPS-stimulation and measured after 90mins by enzyme immunoassay; format: functional; parameters: scale not given: the % may be the effect or the level left; conditions: time 150 min, 2.5 h

MAP kinase-activated protein kinase 2 (Homo sapiens), sequence (P49137 whole entry, looked up): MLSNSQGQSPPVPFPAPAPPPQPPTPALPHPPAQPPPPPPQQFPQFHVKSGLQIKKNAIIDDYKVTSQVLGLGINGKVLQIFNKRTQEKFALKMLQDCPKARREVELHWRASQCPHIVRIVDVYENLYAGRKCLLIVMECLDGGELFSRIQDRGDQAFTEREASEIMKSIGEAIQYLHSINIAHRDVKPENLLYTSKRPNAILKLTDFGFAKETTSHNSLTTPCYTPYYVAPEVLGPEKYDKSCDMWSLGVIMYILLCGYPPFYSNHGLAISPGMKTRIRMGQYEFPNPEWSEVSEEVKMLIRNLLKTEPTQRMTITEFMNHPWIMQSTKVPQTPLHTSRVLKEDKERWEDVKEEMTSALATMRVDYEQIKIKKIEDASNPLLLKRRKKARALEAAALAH
Receptor tyrosine-protein kinase erbB-2 (Homo sapiens), sequence (P04626 whole entry): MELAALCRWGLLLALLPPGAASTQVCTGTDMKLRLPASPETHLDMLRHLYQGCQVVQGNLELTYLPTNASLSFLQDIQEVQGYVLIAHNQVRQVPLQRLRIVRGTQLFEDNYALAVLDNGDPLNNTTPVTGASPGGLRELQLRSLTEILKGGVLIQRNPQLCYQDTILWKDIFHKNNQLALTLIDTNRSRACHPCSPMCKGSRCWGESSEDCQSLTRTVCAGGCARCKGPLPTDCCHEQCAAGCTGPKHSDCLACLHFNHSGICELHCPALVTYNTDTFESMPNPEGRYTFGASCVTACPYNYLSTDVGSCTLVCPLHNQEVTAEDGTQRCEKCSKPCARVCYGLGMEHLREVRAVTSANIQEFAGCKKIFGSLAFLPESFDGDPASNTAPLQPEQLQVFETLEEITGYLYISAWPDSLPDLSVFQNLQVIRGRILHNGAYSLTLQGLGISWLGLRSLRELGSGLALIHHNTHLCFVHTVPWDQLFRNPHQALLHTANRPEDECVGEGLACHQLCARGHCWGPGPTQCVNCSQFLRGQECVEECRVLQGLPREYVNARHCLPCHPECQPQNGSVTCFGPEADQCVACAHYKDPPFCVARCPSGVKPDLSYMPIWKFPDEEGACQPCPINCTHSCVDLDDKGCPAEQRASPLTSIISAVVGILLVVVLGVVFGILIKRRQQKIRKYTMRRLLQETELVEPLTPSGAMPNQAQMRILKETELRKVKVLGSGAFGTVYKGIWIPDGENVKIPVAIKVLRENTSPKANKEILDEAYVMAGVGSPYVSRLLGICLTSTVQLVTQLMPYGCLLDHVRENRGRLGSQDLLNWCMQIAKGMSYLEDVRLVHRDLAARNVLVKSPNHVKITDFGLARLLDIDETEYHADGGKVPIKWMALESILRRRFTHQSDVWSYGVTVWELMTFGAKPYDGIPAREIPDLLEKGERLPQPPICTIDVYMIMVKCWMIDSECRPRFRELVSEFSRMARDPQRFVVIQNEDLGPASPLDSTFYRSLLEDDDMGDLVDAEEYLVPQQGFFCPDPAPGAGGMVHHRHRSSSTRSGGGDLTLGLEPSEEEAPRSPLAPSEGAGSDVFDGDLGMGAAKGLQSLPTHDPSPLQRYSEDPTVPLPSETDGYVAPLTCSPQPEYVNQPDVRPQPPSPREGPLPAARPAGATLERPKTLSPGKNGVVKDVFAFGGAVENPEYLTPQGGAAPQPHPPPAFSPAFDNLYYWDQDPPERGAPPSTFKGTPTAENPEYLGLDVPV
Insulin-like growth factor 1 receptor (Homo sapiens), sequence (P08069 31-736 limits assumed): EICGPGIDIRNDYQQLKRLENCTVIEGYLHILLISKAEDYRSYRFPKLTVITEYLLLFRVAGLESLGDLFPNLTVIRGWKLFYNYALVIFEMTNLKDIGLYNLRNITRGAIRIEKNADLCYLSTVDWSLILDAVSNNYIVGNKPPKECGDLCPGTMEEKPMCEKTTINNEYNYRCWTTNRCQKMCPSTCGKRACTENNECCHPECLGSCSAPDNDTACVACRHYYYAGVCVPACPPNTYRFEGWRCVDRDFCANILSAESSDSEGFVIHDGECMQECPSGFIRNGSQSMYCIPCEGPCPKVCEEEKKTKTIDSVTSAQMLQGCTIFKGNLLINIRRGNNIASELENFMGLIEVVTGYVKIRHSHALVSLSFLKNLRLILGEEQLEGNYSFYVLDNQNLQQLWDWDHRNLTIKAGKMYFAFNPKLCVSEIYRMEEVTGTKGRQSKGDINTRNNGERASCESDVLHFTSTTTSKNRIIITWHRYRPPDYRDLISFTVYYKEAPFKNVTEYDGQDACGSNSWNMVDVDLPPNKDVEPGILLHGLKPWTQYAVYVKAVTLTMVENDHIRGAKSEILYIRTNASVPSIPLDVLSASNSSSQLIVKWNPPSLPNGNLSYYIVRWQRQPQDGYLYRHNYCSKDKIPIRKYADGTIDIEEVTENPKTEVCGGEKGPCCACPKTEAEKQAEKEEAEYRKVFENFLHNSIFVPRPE
Insulin-like growth factor 1 receptor (Homo sapiens), sequence (P08069 741-1367 limits assumed): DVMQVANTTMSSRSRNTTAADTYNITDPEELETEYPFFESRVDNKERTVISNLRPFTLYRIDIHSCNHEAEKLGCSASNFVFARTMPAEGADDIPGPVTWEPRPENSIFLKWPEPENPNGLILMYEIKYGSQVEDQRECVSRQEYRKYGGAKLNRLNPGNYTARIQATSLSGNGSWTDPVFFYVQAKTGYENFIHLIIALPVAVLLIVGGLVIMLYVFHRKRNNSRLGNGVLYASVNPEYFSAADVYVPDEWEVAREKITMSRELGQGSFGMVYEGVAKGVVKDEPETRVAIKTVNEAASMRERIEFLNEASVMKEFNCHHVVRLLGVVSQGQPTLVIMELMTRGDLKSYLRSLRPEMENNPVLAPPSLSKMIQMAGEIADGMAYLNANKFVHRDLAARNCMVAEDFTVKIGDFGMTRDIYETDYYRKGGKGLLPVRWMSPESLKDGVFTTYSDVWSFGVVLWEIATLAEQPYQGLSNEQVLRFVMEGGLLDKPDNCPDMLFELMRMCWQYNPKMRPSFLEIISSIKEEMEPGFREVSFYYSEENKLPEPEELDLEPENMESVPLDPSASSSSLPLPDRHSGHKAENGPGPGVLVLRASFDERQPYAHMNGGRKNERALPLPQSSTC
Mitogen-activated protein kinase 1 (Homo sapiens), sequence (P28482 whole entry): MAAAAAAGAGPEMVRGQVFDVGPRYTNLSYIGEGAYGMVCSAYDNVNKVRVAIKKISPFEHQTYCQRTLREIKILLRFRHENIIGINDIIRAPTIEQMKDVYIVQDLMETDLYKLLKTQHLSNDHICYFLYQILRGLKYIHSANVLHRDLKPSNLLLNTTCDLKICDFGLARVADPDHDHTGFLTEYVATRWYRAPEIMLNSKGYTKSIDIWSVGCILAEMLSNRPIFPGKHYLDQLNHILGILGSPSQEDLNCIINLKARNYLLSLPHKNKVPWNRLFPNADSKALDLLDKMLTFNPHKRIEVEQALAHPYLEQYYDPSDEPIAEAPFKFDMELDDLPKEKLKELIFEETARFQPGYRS
Tyrosine-protein kinase Lck (Homo sapiens), sequence (P06239 2-509 limits assumed): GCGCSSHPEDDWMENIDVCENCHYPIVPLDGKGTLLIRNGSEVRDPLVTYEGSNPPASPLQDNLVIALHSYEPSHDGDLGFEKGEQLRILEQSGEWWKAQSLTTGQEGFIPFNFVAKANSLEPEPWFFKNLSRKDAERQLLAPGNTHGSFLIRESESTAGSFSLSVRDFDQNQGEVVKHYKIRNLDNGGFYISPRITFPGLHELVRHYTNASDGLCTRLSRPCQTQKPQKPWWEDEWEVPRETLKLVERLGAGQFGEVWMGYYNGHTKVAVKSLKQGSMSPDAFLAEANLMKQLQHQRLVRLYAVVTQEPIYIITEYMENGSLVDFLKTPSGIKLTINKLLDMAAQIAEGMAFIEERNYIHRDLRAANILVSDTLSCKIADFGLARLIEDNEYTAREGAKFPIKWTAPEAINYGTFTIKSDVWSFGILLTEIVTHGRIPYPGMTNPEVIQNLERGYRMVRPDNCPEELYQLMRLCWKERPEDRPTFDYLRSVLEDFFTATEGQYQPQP
Mitogen-activated protein kinase 14 (Homo sapiens), sequence (Q16539 whole entry): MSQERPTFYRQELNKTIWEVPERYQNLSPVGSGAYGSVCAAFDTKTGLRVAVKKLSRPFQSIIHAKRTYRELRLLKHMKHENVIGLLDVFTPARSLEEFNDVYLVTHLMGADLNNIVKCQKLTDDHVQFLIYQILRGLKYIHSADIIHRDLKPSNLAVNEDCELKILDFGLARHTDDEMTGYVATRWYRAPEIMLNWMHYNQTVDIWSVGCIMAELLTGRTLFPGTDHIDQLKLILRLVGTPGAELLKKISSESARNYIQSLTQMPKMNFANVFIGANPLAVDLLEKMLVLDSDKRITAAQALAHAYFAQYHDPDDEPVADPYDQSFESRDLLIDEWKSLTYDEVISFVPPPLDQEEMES

inhibition [1]: inactive
inhibition [2]: inactive
inhibition [3]: inactive
inhibition [4]: inactive
inhibition [5]: inactive
inhibition [6]: inactive
inhibition [7]: inactive
inhibition [8]: inactive
inhibition [9]: inactive
inhibition [10]: inactive
inhibition (Homo sapiens): inactive
inhibition [11]: inactive
inhibition [12]: inactive
inhibition [14]: inactive
inhibition [15]: inactive
IC50 (THP-1 [16]): 1000 nM
IC50 (THP-1 [17]): 1000 nM
IC50 (THP-1 [18]): 1000 nM
IC50 (THP-1 [19]): 1000 nM
solubility [20]: Soluble
Cmax [21]: 1600 nM
Tmax [22]: 0.52 h
half-life [23]: 2.2 h
Vd [24]: 18.5 L/kg
clearance [25]: 114 mL/min/kg
bioavailability [26]: ~100%
Activity (Mus musculus [27]): Dose-Dependent Effect
SMILES: Cc1ccc2nc(NCCN)c3ncc(C)n3c2c1 [BMS-345541]
Activity (THP-1 [13]): Non-Toxic
Activity (Mus musculus [28]): 50%
Activity (Mus musculus [29]): 100%
